Our source for the XC50 values is ChEMBL document CHEMBL1157539, “Thousands of chemical starting points for antimalarial lead identification” (Nature, 2010).

The assay deals with Plasmodium falciparum. As to the kind of experiment: GSK_TCMDC: Inhibition of Plasmodium falciparum 3D7 in whole erythrocytes, using parasite LDH activity as an index of growth. In kind it is functional, organism-based. Particulars: Plasmodium falciparum, 3D7.
On to `CCN(CC)CCCC(C)Nc1cc(C)nc2cc(Cl)ccc12` (stereo unspecified), for which the XC50 was 726 nM.
The result for `CC(C)(C)N1CCC(N(Cc2ccc(-c3ccc(C(F)(F)F)cc3)cc2)C(=O)Cn2c(CCc3cccc(F)c3F)cc(=O)c3cccnc32)CC1` reads 705 nM; that for `O=C(Nc1ccc2c(c1)CCC2)N[C@H]1CCN(CCCCCNC(=O)C2CC2c2ccc(Cl)c(Cl)c2)C1` (stereo partly specified), 1080 nM.
In turn, `O=C(c1cnn(-c2ccccc2)c1C(F)(F)F)N1CCN(c2ccnc3cc(Cl)ccc23)CC1` showed an XC50 of 532 nM.
As to `CNCCNCc1ccc(-c2ccc(-c3nc4cc(C(F)(F)F)ccc4[nH]3)cc2)cc1`, the XC50 turned out to be 314 nM.
The result for `Cc1ccc(NCc2cccc(F)c2)cc1S(=O)(=O)N[C@@H]1CCN(C#N)C1` reads 785 nM.
`Cc1cc(NC(=O)Nc2ccc(N(C)C)cc2)c2cc(Cl)ccc2n1` had an XC50 of 857 nM.
The result for `CCC[C@@H]([C@@H](CC1CCC(C)CC1)C(=O)N[C@@H](CCCCNC(=O)c1ccccn1)C(=O)Nc1nccs1)N(O)C=O` (stereo partly specified) reads 51.3 nM; that for `CC1(C)NC(N)=NC(=N)N1OCCCOc1ccccc1N`, 3.2 nM; that for `O=C1OC(c2cc3ccccc3n2S(=O)(=O)c2ccccc2)(c2cc3ccccc3n2S(=O)(=O)c2ccccc2)c2ccccc21`, 846 nM.
Turning to `CC[C@H]1CN2CC[C@@H]1C[C@H]2[C@H](O)c1cc(-c2cccnc2)nc2ccc(OC)cc12`, the XC50 was found to be 37.9 nM.
Compound `COc1ccc2nccc(N3CCCN(CCNCc4ccc5c(n4)NC(=O)CS5)CC3)c2n1` returned an XC50 of 155 nM.
Consider `COc1ccc(N2C(N)=NC(N)=NC2(C)C)cc1OC`, for which the XC50 is 311 nM.
To `S=C(NCCCCCN1CCC(c2c[nH]c3ccccc23)CC1)Nc1cc(Cl)cc(Cl)c1` belongs 868 nM; to `O=C1OC(c2ccccc2)(c2ccccc2)CN1C1CCN(Cc2ccc(O)c(Cl)c2)C1` (stereo unspecified), 955 nM; to `C=CCOc1ccc(C(=O)Nc2nonc2-c2ccc(OC)c(OC)c2)cc1`, 642 nM.
`CC(CN(C)C)C(=O)Nc1cccc(-c2cccc(-c3nc4ccccc4[nH]3)c2)c1` (stereo unspecified) returned an XC50 of 1060 nM.
`CCCCOc1ccc(N2C(N)=NC(N)=NC2(C)C)cc1` showed an XC50 of 215 nM.
Regarding `CCCCC#Cc1cnc2nc(N)[nH]c(=O)c2n1`, the XC50 amounted to 646 nM.
Turning to `CCC(=O)Nc1ccc(C(O)CN2CCC3(C=Cc4ccccc4O3)CC2)cc1` (stereo unspecified), the XC50 is 1200 nM.
For `Cn1nc(-c2ccc(Cl)cc2)c2cc(C(=O)NCCN3CCOCC3)sc21`, the XC50 worked out at 721 nM.
`COc1ccc(C(=O)NCCCCN2CCC(c3ccc4c(c3OC)CCCC4)CC2)cc1-c1ccc(C(F)(F)F)cc1` had an XC50 of 755 nM.
To `Cn1nc(-c2ccccc2F)c2cc(C(=O)Nc3cccnc3)sc21` belongs 810 nM.
Compound `CCn1c(-c2nonc2N)nc2c(-c3ccccc3)ncc(OCCCCNCCc3ncc[nH]3)c21` gave an XC50 of 852 nM.
Take `Fc1cccc(COc2ccc(Nc3ncnc4sc(C#C[C@H]5CC[C@H](CN6CCOCC6)N5)cc34)cc2Cl)c1`: the XC50 came to 920 nM.
As to `CC(C)COc1ccc(Cl)cc1Cc1ccc(-c2nc3ccc(Cl)cc3[nH]2)o1`, the XC50 was determined as 925 nM.
For the compound `O=C(c1cncc(-c2ccccc2)c1)N(Cc1cncn1Cc1ccccc1F)CC1CC1`, the XC50 is 804 nM.
The compound `CN(c1ccccc1C(=O)Nc1cc(Cl)ccc1Oc1ccccc1)S(=O)(=O)c1ccccc1` registered an XC50 of 742 nM.
Compound `COc1c(OC)c(OC)c2ccccc2c1CCNCCCCNCCc1c(OC)c(OC)c(OC)c2ccccc12` showed an XC50 of 612 nM.
The compound `CC(=O)Nc1cccc(-c2cnc(N)c3cc(-c4ccc5c(c4)OCO5)ccc23)c1` came in with an XC50 of 491 nM.
In the case of `O=C(CCCCCNC(=O)c1ccc(O)c(-c2ccc(Cl)c(Cl)c2)c1)NCc1cccc2ccccc12`, the XC50 was 762 nM.
Compound `c1ccc2c(Nc3ccc(OCCOCCOc4ccc(Nc5c6ccccc6nc6ccccc56)cc4)cc3)c3ccccc3nc2c1` registered an XC50 of 284 nM.
`CC(Oc1ccc(NC(=O)c2cccs2)cc1)C(=O)c1ccc(Cl)cc1` (stereo unspecified) displayed an XC50 of 774 nM.
For the compound `Cc1cccc(C)c1OC(=O)C(C)C(O)C1(Sc2ccccc2)CCN(C)CC1` (stereo unspecified), the XC50 was 734 nM.
The result for `O=C1COC(c2ccccc2)(c2ccccc2)CN1CC1CCN(Cc2ccc(O)cc2Cl)C1` (stereo unspecified) reads 999 nM; that for `Cc1nc2nc(N)nc(N)c2c(C)c1Cc1cccc(C(F)(F)F)c1`, 1290 nM.
To `CC1CCC(NCc2c(O)ccc3ccccc23)CC1` (stereo unspecified) belongs 772 nM; to `Nc1cc(-c2ccc3ccccc3c2)nc2ccccc12`, 699 nM.
The compound `FC(F)(F)c1ccc2[nH]c(-c3ccc(-c4ccc(CN5CCN(c6cnccn6)CC5)cc4)s3)nc2c1` came in with an XC50 of 652 nM.
`Cc1nc2ccc(-c3ccc(OC(F)(F)F)cc3)cc2c(O)c1C#N` showed an XC50 of 20.7 nM.
Take `CCCCCCOc1ccc(C(=O)NCCCC2CCN(CCCCCNC(=O)C=Cc3ccc(Cl)c(Cl)c3)CC2)cc1`: the XC50 came to 854 nM.
To `COc1cc(C(F)(F)F)cc2[nH]c(CNCCCNc3nc4ccccc4[nH]3)cc12` belongs 280 nM.
In the case of `CCc1cn(C)c2c(N3CCCC3=O)cc(C(=O)N[C@@H](Cc3ccccc3)[C@H](O)CNCc3cccc(OC)c3)cc12`, the XC50 is 784 nM.
`O=C(C=Cc1ccc(Cl)c(Cl)c1)NCCCCCN1CCC(CCCNC(=O)C2CC2c2ccccc2)CC1` (stereo unspecified) registered an XC50 of 765 nM.
With `COc1ccc(CCN(C)CCCOc2ccc(NC(=O)COc3cccc4sc5ccccc5c(=O)c34)cc2)cc1OC`, the XC50 was determined as 459 nM.
The compound `CCOc1c(Br)cc(Br)cc1CNCCCCNc1nc2ccccc2[nH]1` gave an XC50 of 394 nM.
`CN(C)Cc1ccc(-c2ccc(NC(=O)c3ccc4c(=O)n(Cc5ccccc5)cnc4c3)cc2)cc1`: the XC50 was 647 nM.
The compound `NS(=O)(=O)c1ccc(CNc2ccc3ncc(-c4ccc(OC(F)(F)F)cc4)n3n2)cc1` yielded an XC50 of 578 nM.
`O=S(=O)(c1cccc(Br)c1)N1CCCCC(c2ccc(C(F)(F)F)cc2)=N1` gave an XC50 of 554 nM.
Take `CCCCOc1c(CCNCCCCNCCc2cc(OC)c3ccccc3c2OCCCC)cc(OC)c2ccccc12`: the XC50 was determined as 925 nM.
`COc1cccc(CN2CCCC(OC(c3ccc(F)cc3)c3ccc(F)cc3)C2)c1O` (stereo unspecified) showed an XC50 of 788 nM.
To `CN1CCN(c2ccnc3ccc(NC(=O)Nc4ccc(Br)cc4)cc23)CC1` belongs 92.5 nM; to `O=c1nc(NCCCNCc2cc3c(Cl)cc(Cl)cc3[nH]2)[nH]c2ccccc12`, 993 nM.
As to `CC1(C)N=C(N)N=C(N)N1OCc1cc(Cl)c(CON2C(N)=NC(N)=NC2(C)C)cc1Cl`, the XC50 was 37.8 nM.
`CCCC(=O)NC(c1ccc(C)cc1)c1ccc2cccnc2c1O` (stereo unspecified): the XC50 amounted to 957 nM.
As to `Cc1ccc2nc(-c3ccc(C(=O)NCc4ccc(Cl)c(Cl)c4)cc3)[nH]c2c1C`, the XC50 stood at 790 nM.
The compound `Cc1cc(-c2nc3ccc(N4CCN(C)CC4)cc3[nH]2)nn1Cc1cc(Cl)ccc1OCC(C)C` showed an XC50 of 878 nM.
In the case of `c1cc(CNC2Cc3ccc(-c4cccs4)cc3C2)cc(-n2ccnc2)c1` (stereo unspecified), the XC50 is 594 nM.
`CCOC(=O)c1sc(C(C)Nc2ccccc2)nc1-c1ccccc1` (stereo unspecified): the XC50 amounted to 333 nM.
Take `O=C(N[C@@H](CC1CCCCC1)C(=O)NCCc1ccc(Cl)c(Cl)c1)c1ccc(O)c(-c2ccc(Cl)c(Cl)c2)c1`: the XC50 is 156 nM.
In turn, `CC(C)OC(=O)c1ccc(NC(=O)N[C@@H](Cc2ccc(O)cc2)C(=O)NC2CC3CCC(C2)N3Cc2ccccc2)cc1` (stereo partly specified) had an XC50 of 1080 nM.
With `NC(=O)c1cc(-c2ccccc2)cc2c(C3CCC(NCc4ccccc4)C3)c[nH]c12` (stereo unspecified), the XC50 was 910 nM.
In the case of `O=S(=O)(Nc1ccc(CCN2CCCCC2CCN2CCCC2)cc1)c1ccc(-c2ccccc2)cc1` (stereo unspecified), the XC50 was determined as 926 nM.
`O=C(Nc1ccc(Cn2ncc(N3CCCNCC3)c(Cl)c2=O)cc1)Nc1cc(C(F)(F)F)cc(C(F)(F)F)c1` yielded an XC50 of 588 nM.
Take `Fc1cccc(CNc2ncc(-c3ccsc3)c(-c3nccs3)n2)c1`: the XC50 amounted to 238 nM.
The compound `O=C(NCCCCCN1CCC(c2c[nH]c3ccccc23)CC1)Nc1cccc(I)c1` showed an XC50 of 993 nM.
`O=C(NC1CCN(Cc2ccccc2O)C1)c1cccc(C(F)(F)F)c1` (stereo unspecified): the XC50 amounted to 730 nM.
To `COc1cc(F)c2ncc(F)c([C@@H](O)CN3CCC(NCc4cc5c(cn4)OCCO5)CC3)c2c1` belongs 477 nM; to `CCCNC(=O)C1Cc2c([nH]c3ccc(Br)cc23)C2(CCN(CCc3ccccc3)CC2)N1` (stereo unspecified), 678 nM; to `CCNc1cc(C(=O)N[C@@H](Cc2ccccc2)[C@H](O)CNC(C)CC(C)C)c(F)c(N2CCCCS2(=O)=O)c1` (stereo partly specified), 1120 nM.
To `CCOC(=O)CNC(=O)N(CCN(Cc1ccccc1)C(=O)NCC(=O)OCC)Cc1ccccc1` belongs 769 nM.
In turn, `Cc1[nH]c(C)c(-c2ccc(-c3ccccc3Cl)nc2)c(=O)c1Br` returned an XC50 of 171 nM.
On to `Nc1c(Cl)cc(C(O)CNCCCCCOCCCc2ccc(O)c3ncccc23)cc1Cl` (stereo unspecified), for which the XC50 is 992 nM.
In turn, `Cc1cc(-c2ccc(Cl)cc2)c2c(N)c(C(=O)Nc3ccc(F)cc3)sc2n1` showed an XC50 of 818 nM.
With `Cc1cc(=O)c(-c2ccc(Oc3cccc(Cl)c3)cc2)c(C)[nH]1`, the XC50 came out at 602 nM.
Regarding `CCOc1ccccc1CNc1nccc(NCCc2cn(C)c3ccccc23)n1`, the XC50 worked out at 1260 nM.
The result for `Cc1n[nH]c2cc(Nc3nccc(Nc4ccc(Oc5ccccc5)cc4)n3)ccc12` reads 600 nM; that for `CCc1nc2nc(C)cc(Nc3ccc4c(c3)OCCO4)n2n1`, 1290 nM; that for `CCCCCCN1CCCN(Cc2ccc(C(=O)Nc3ccc(CC)cc3)cc2)CC1`, 756 nM.
Consider `COc1ccc2nccc(NCC3(O)CCN(CC(O)c4ccc5c(c4)NC(=O)CS5)CC3)c2n1` (stereo unspecified), for which the XC50 was determined as 834 nM.
Compound `C=CCOC(=O)N1CCC(CNCc2cccc(-c3cccc(-c4nc5cc(F)ccc5[nH]4)c3)c2)C1` (stereo unspecified) returned an XC50 of 207 nM.
The compound `CC(=O)Nc1nc(C(=O)Nc2cccc(-c3ccc(-c4nc5cccc(C)c5[nH]4)s3)c2)cs1` came in with an XC50 of 222 nM.
For `COc1ccc2c(c1CCNCCCCNCCc1c(OC)ccc3c1CCCC3)CCCC2`, the XC50 was 376 nM.
With `COc1ccc(-c2ccc(NC(=O)c3ccc(C#N)cc3)cc2)cc1CN1CCCN(C)CC1`, the XC50 came to 152 nM.
On to `Nc1ncc(-c2cccc(OCc3ccccc3)c2)cc1-c1nnc2ccc(Cl)nn12`, for which the XC50 worked out at 1430 nM.
With `NC(=O)c1sc(-n2cnc3ccccc32)cc1OCc1ccccc1[N+](=O)[O-]`, the XC50 came out at 702 nM.
